Data as given in the OPERA property sets (Mansouri et al. 2018).

Conditions: for log10 biotransformation half-life (days) / log10 BCF: fish

Row | SMILES | boiling point [°C] | melting point [°C] | further results
1 | Cc1cccc2[nH]ccc12 | 267 | 5 | –
2 | CCS(=O)(=O)C(C)(C)S(=O)(=O)CC | 300 | 126 | –
3 | CCCCCCCCCCCCCC1CCCCC1 | 346 | 18.5 | log10 vapour pressure (mmHg): -5.04
4 | CCCOCCC | 90 | -122 | log10 Henry constant (atm·m³/mol): -2.66; log10 Koa: 2.97; log10 vapour pressure (mmHg): 1.8
5 | COC(=O)C(C)(C)C | 101 | – | log10 Henry constant (atm·m³/mol): -3.37
6 | CC(C)(C)C(O)(CCc1ccc(Cl)cc1)Cn1cncn1 (centres undefined) | – | 102 | log10 vapour pressure (mmHg): -7.89; log10 biotransformation half-life (days): 0.77
7 | C=Cc1ccccc1Br | 209 | -52.5 | –
8 | NC(=O)c1ccccc1N | 300 | – | –
9 | COc1ccccc1OCC(O)COC(N)=O (centres undefined) | – | 93 | ready biodegradability: not readily biodegradable
10 | CCNc1nc(NC(C)(C)C)nc(OC)n1 | – | 124 | log10 vapour pressure (mmHg): -5.7
11 | CCCSP(=O)(OCC)Oc1cnn(-c2ccc(Cl)cc2)c1 (centres undefined) | – | – | log10 vapour pressure (mmHg): -7.92
12 | O=C1c2ccccc2C(=O)c2c1cc(S(=O)(=O)[O][Na])c(O)c2O | – | – | ready biodegradability: not readily biodegradable
13 | Cc1cc(-c2cc(C)c(O)c(C)c2)cc(C)c1O | – | 222 | –
14 | FC(F)(F)C(Cl)(Cl)Cl | 46.1 | 14.2 | log10 vapour pressure (mmHg): 2.56
15 | Oc1cc(Cl)c(Cl)c(Cl)c1Cl | – | 116 | log10 Koc (L/kg): 4.12
16 | COC(=O)C1CCCCC1 | 183 | – | –
17 | Cc1cccc(C(C)(C)C)c1 | 189 | -41.4 | –
18 | CCOc1ccc(C(=O)O)cc1 | – | 198 | –
19 | Clc1cc(-c2cc(Cl)c(Cl)c(Cl)c2Cl)c(Cl)c(Cl)c1Cl | – | – | log10 Henry constant (atm·m³/mol): -5; log10 Koc (L/kg): 6.41; log10 biotransformation half-life (days): 3
20 | CCC(Cl)CC | 97.5 | -105 | log10 vapour pressure (mmHg): 1.67
21 | c1cc(N(CC2CO2)CC2CO2)ccc1Cc1ccc(N(CC2CO2)CC2CO2)cc1 (centres undefined) | – | – | ready biodegradability: not readily biodegradable

Row | SMILES | boiling point [°C] | melting point [°C] | further results
22 | O=c1cc[nH]c(=O)[nH]1 | – | 338 | log10 vapour pressure (mmHg): -4.33
23 | CC1=CCCC(C)(C)C1CO (centres undefined) | 215 | – | –
24 | CC(=O)Nc1cccc([N+](=O)[O-])c1 | – | 155 | log10 Koc (L/kg): 1.94
25 | FC(F)(Br)C(F)(Cl)Br (centres undefined) | 93 | – | –
26 | NC(=O)c1cnccn1 | – | 192 | –
27 | Nc1ccc(C(=O)O)cn1 | – | 312 | –
28 | O=COCCCc1ccccc1 | 250 | – | –
29 | CCOc1c(N2CCOCC2)cnn(C)c1=O | – | 90 | –
30 | C=C/C=C\CC1=C(C)[C@@H](OC(=O)[C@@H]2[C@@H](C=C(C)C)C2(C)C)CC1=O | – | – | log10 vapour pressure (mmHg): -4.69
31 | Nc1c(Cl)cc(Cl)cc1Cl | 262 | 78.5 | ready biodegradability: not readily biodegradable; log10 BCF: 2; log10 biotransformation half-life (days): 0.67
32 | NC1=C(Cl)C(=O)c2ccccc2C1=O | – | 199 | log10 vapour pressure (mmHg): -6.35
33 | O=[N+]([O-])c1ccc(CCc2ccc([N+](=O)[O-])cc2)cc1 | – | 181 | –
34 | CCCCNC(=O)n1c(NC(=O)OC)nc2ccccc21 | – | – | log10 Henry constant (atm·m³/mol): -11.3; log10 Koc (L/kg): 2.71; log10 vapour pressure (mmHg): -8.43
35 | C=CCCCCCC=C | 142 | – | –
36 | Clc1ccc(Cl)c(Br)c1 | 226 | 35 | –
37 | Clc1cc2c(c(Cl)c1Cl)Oc1cc(Cl)c(Cl)c(Cl)c1O2 | – | 285 | log10 Koa: 11; log10 vapour pressure (mmHg): -10.4; log10 BCF: 3.93; log10 biotransformation half-life (days): 1.21
38 | Clc1cc2c(Cl)ccc(Cl)c2cc1Cl | – | – | log10 Koa: 8.13
39 | ClC(Cl)=C(Cl)C(Cl)=C(Cl)Cl | 215 | -21 | log10 Henry constant (atm·m³/mol): -1.99; log10 vapour pressure (mmHg): -0.658; ready biodegradability: not readily biodegradable; log10 BCF: 3.82; log10 biotransformation half-life (days): 2.07
40 | C=C1CC[C@H](O)C/C1=C/C=C1\CCC[C@]2(C)[C@@H]([C@H](C)/C=C/[C@H](C)C(C)C)CC[C@@H]12 | – | 116 | –
41 | O=C1NC(=O)C2CC=CCC12 (centres undefined) | – | – | ready biodegradability: not readily biodegradable
42 | N#Cc1cccc(Br)c1 | 225 | – | –

Row | SMILES | boiling point [°C] | melting point [°C] | further results
43 | Cc1ccc(O)c(C=O)c1 | 218 | 56 | –
44 | Cc1ccsc1C | 142 | -49 | –
45 | CC1OC(=O)C(C)OC1=O (centres undefined) | – | 118 | –
46 | CCc1cnccc1C | 198 | – | –
47 | COc1ccc(NC(N)=O)cc1Cl | – | – | log10 Koc (L/kg): 2
48 | CN(C)c1ccc(C(=O)c2ccccc2)cc1 | – | 92.5 | –
49 | CCCCCCCC/C=C\CCCCCCCC(=O)OCC | – | -13.1 | –
50 | CCCCC(C)O (centres undefined) | 136 | – | log10 vapour pressure (mmHg): 0.396; ready biodegradability: not readily biodegradable
51 | CCN(CC)c1ccc(N=O)cc1 | – | 87.5 | –
52 | COC1=C[C@@H]2[C@@H]3Cc4ccc(OC)c(O)c4[C@]2(CCN3C)CC1=O | – | 162 | –
53 | Clc1ccc(Oc2cccc(Cl)c2)cc1 | – | – | log10 vapour pressure (mmHg): -3.19
54 | COc1ccc(S)cc1 | 228 | – | –
55 | CC[N+](C)(C)CCOC(=O)C(O)(c1ccccc1)c1ccccc1.[Cl-] | – | 213 | –
56 | ClCCN(CCCl)c1ccc2ccccc2c1 | – | 55 | –
57 | O=S(=O)(c1ccc(Cl)cc1)c1cc(Cl)c(Cl)cc1Cl | – | 147 | log10 vapour pressure (mmHg): -9.62; ready biodegradability: not readily biodegradable
58 | CCn1c2ccccc2c2cc(N)ccc21 | – | 99 | –
59 | Oc1ccc(O)c(Cc2ccccc2)c1 | – | 106 | –
60 | O=C(O)c1ccco1 | 231 | 134 | –
61 | CCCCS(=O)(=O)O | – | -15.2 | –
62 | FC(F)(Br)Br | 25 | -110 | log10 vapour pressure (mmHg): 2.91
63 | Cc1ccc(C(=O)O)cc1C | – | 165 | –
